Source: patent US20110086759A1, “CHEMICAL COMPOUNDS” (SYNGENTA CROP PROTECTION, INC., priority 2007, published 2011)

What was measured:
Assay type in all cases: in vivo
[1] = system: Ipomea hederaceae (IPOHE); assay: Pre-emergence biological efficacy, glasshouse pot test; settings: Ipomoea hederacea, 312 h
Outline: (§1)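 Damage rated 0–100 (100 = total kill) 13 days post-spray. Pots of standard soil were sown and sprayed after one day with test compound at 1000 or 250 g/ha in acetone/water (50:50) plus 0.5% Tween 20.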

[2] = system: Alopecurus myosuroides (ALOMY); assay: as above; settings: 312 h
Outline: as §1

Setaria faberi (SETFA) [3] = assay: as above; settings: 312 h
Outline: as §1

[4] = system: Amaranthus retoflexus (AMARE); assay: as above; settings: Amaranthus retroflexus, 312 h
Outline: as §1

[5] = system: Echinochloa crus-galli (ECHCG); assay: as above; settings: 312 h
Outline: as §1

Solanum nigrum (SOLNI) [6] = assay: as above; settings: 312 h
Outline: as §1

[7] = system: Ipomea hederaceae (IPOHE); assay: Post-emergence biological efficacy, glasshouse pot test; settings: Ipomoea hederacea, 312 h
Outline: (§2)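 Pot-grown weeds were sprayed 8 days after sowing with test compound in acetone/water (50:50) with 0.5% Tween 20 at 1000 or 250 g/ha. Glasshouse at 24/16° C day/night, 14 h light, 65% humidity. Damage scored 0-100 (100 = total damage) after 13 days.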

[8] = system: Alopecurus myosuroides (ALOMY); assay: as above; settings: 312 h
Outline: as §2

Setaria faberi (SETFA) [9] = assay: as above; settings: 312 h
Outline: as §2

[10] = system: Amaranthus retoflexus (AMARE); assay: as above; settings: Amaranthus retroflexus, 312 h
Outline: as §2

[11] = system: Echinochloa crus-galli (ECHCG); assay: as above; settings: 312 h
Outline: as §2

Solanum nigrum (SOLNI) [12] = assay: as above; settings: 312 h
Outline: as §2

[13] = pre-emergence, 1,000 g/ha, evaluated after 13 days (100=total damage; 0=no damage), read-out: Percentage damage IPOHE
[14] = pre-emergence, 1,000 g/ha, evaluated after 13 days (100=total damage; 0=no damage), read-out: Percentage damage ALOMY
[15] = pre-emergence, 1,000 g/ha, evaluated after 13 days (100=total damage; 0=no damage), read-out: Percentage damage SETFA
[16] = pre-emergence, 1,000 g/ha, evaluated after 13 days (100=total damage; 0=no damage), read-out: Percentage damage AMARE
[17] = pre-emergence, 1,000 g/ha, evaluated after 13 days (100=total damage; 0=no damage), read-out: Percentage damage ECHCG
[18] = pre-emergence, 1,000 g/ha, evaluated after 13 days (100=total damage; 0=no damage), read-out: Percentage damage SOLNI
[19] = post-emergence, 1,000 g/ha, evaluated after 13 days (100=total damage; 0=no damage), read-out: Percentage damage caused to weed species, IPOHE
[20] = post-emergence, 1,000 g/ha, evaluated after 13 days (100=total damage; 0=no damage), read-out: Percentage damage caused to weed species, ALOMY
[21] = post-emergence, 1,000 g/ha, evaluated after 13 days (100=total damage; 0=no damage), read-out: Percentage damage caused to weed species, SETFA
[22] = post-emergence, 1,000 g/ha, evaluated after 13 days (100=total damage; 0=no damage), read-out: Percentage damage caused to weed species, AMARE
[23] = post-emergence, 1,000 g/ha, evaluated after 13 days (100=total damage; 0=no damage), read-out: Percentage damage caused to weed species, ECHCG
[24] = post-emergence, 1,000 g/ha, evaluated after 13 days (100=total damage; 0=no damage), read-out: Percentage damage caused to weed species, SOLNI

Row | SMILES | pest or weed control at 1000 g/ha [1, 13] [%] | pest or weed control at 1000 g/ha [2, 14] [%] | pest or weed control at 1000 g/ha (Setaria faberi (SETFA) [3]; [15]) [%] | pest or weed control at 1000 g/ha [4, 16] [%] | pest or weed control at 1000 g/ha [5, 17] [%] | pest or weed control at 1000 g/ha (Solanum nigrum (SOLNI) [6]; [18]) [%] | pest or weed control at 1000 g/ha [7, 19] [%] | pest or weed control at 1000 g/ha [8, 20] [%] | pest or weed control at 1000 g/ha (Setaria faberi (SETFA) [9]; [21]) [%] | pest or weed control at 1000 g/ha [10, 22] [%] | pest or weed control at 1000 g/ha [11, 23] [%] | pest or weed control at 1000 g/ha (Solanum nigrum (SOLNI) [12]; [24]) [%] | also measured
1 | COC(=O)c1nc(C2CC2)nc(NC2(/C=C/c3cc(C(F)(F)F)cc(C(F)(F)F)c3)CC2)c1Cl [Compound 4-22, 4-{1-[2-(3,5-Bis-trifluoromethylphen-yl)-ethenyl]-cyclopropylamino}-5-chloro-2-cyclopropyl-6-methoxycarbonyl-pyrimidine] | 80 | 20 | 10 | 70 | 20 | 20 | 100 | 30 | 80 | 100 | 40 | 100 | –
2 | COC(=O)c1nc(C2CC2)nc(NCC(=O)OCc2ccccc2)c1Cl [Compound 4-265, 5-Chloro-2-cyclopropyl-6-methoxycarbonyl-4-(phenylmethoxy-carbonylmethyl-amino)pyrimidine] | 90 | 10 | 30 | 100 | 30 | 90 | 60 | 20 | 40 | 100 | 20 | 70 | –
3 | COC(=O)c1nc(C2CC2)nc(NCc2c(F)cccc2F)c1Cl [Compound 4-99, 5-Chloro-2-cyclopropyl-4-(2,6-difluorophenylmeth-ylamino)-6-methoxycarbonyl-pyrimidine] | 60 | 30 | 50 | 60 | 50 | 60 | 100 | 50 | 100 | 100 | 100 | 100 | –
4 | COC(=O)c1nc(C2CC2)nc(NCc2cc(C(F)(F)F)cc(C(F)(F)F)c2)c1Cl [Compound 4-108, 4-(3,5-Bis-trifluoro-methylphenyl-methylamino)-5-chloro-2-cyclo-propyl-6-methoxy-carbonylpyrimidine] | 40 | 0 | 10 | 40 | 0 | 0 | 70 | 10 | 20 | 50 | 10 | 90 | –
5 | COC(=O)c1nc(C2CC2)nc(NC(Cc2ccccc2)c2ccccc2)c1Cl (stereo not drawn) [Compound 4-279, 5-Chloro-2-cyclopropyl-4-(1,2-diphenylethyl-amino)-6-methoxy-carbonylpyrimidine] | 60 | 10 | 0 | 20 | 0 | 70 | 60 | 10 | 40 | 90 | 0 | 70 | –
6 | COC(=O)c1nc(-c2ccc(Cl)cc2)nc(NC2CC2)c1Cl [Compound 40-1, 5-Chloro-2-(4-chloro-phenyl)-4-cyclo-propylamino-6-methoxycarbonyl-pyrimidine] | – | – | – | – | – | – | – | – | – | – | – | – | pest or weed control at 1000 g/ha ([1]; pre-emergence, rate 1,000 g/ha, evaluated after 13 days (100=total damage to plant; 0=no damage), read-out: Percentage damage caused to weed species, IPOHE): 30%; pest or weed control at 1000 g/ha ([2]; pre-emergence, rate 1,000 g/ha, evaluated after 13 days (100=total damage to plant; 0=no damage), read-out: Percentage damage caused to weed species, ALOMY): 40%; pest or weed control at 1000 g/ha (Setaria faberi (SETFA) [3]; pre-emergence, rate 1,000 g/ha, evaluated after 13 days (100=total damage to plant; 0=no damage), read-out: Percentage damage caused to weed species, SETFA): 30%; pest or weed control at 1000 g/ha ([4]; pre-emergence, rate 1,000 g/ha, evaluated after 13 days (100=total damage to plant; 0=no damage), read-out: Percentage damage caused to weed species, AMARE): 100%; pest or weed control at 1000 g/ha ([5]; pre-emergence, rate 1,000 g/ha, evaluated after 13 days (100=total damage to plant; 0=no damage), read-out: Percentage damage caused to weed species, ECHCG): 50%; pest or weed control at 1000 g/ha (Solanum nigrum (SOLNI) [6]; pre-emergence, rate 1,000 g/ha, evaluated after 13 days (100=total damage to plant; 0=no damage), read-out: Percentage damage caused to weed species, SOLNI): 40%; pest or weed control at 1000 g/ha ([7]; Rate 1,000 g/ha, post-emergence spray, evaluated after 13 days (100=total damage to plant; 0=no damage to plant), read-out: Percentage damage caused to weed species, post-emergence, IPOHE): 70%; pest or weed control at 1000 g/ha ([8]; Rate 1,000 g/ha, post-emergence spray, evaluated after 13 days (100=total damage to plant; 0=no damage to plant), read-out: Percentage damage caused to weed species, post-emergence, ALOMY): 40%; pest or weed control at 1000 g/ha (Setaria faberi (SETFA) [9]; Rate 1,000 g/ha, post-emergence spray, evaluated after 13 days (100=total damage to plant; 0=no damage to plant), read-out: Percentage damage caused to weed species, post-emergence, SETFA): 90%; pest or weed control at 1000 g/ha ([10]; Rate 1,000 g/ha, post-emergence spray, evaluated after 13 days (100=total damage to plant; 0=no damage to plant), read-out: Percentage damage caused to weed species, post-emergence, AMARE): 100%; pest or weed control at 1000 g/ha ([11]; Rate 1,000 g/ha, post-emergence spray, evaluated after 13 days (100=total damage to plant; 0=no damage to plant), read-out: Percentage damage caused to weed species, post-emergence, ECHCG): 50%; pest or weed control at 1000 g/ha (Solanum nigrum (SOLNI) [12]; Rate 1,000 g/ha, post-emergence spray, evaluated after 13 days (100=total damage to plant; 0=no damage to plant), read-out: Percentage damage caused to weed species, post-emergence, SOLNI): 100%
7 | COC(=O)c1nc(C2CC2)nc(NC(C)Cc2c[nH]c3ccccc23)c1Cl (stereo not drawn) [Compound 4-231, 5-Chloro-2-cyclopropyl-4-[2-(indol-3-yl)-1-methyl-ethylamino]-6-methoxy-carbonylpyrimidine] | 70 | 0 | 0 | 30 | 0 | 10 | 60 | 10 | 30 | 90 | 10 | 70 | –
8 | COC(=O)c1nc(C2CC2)nc(N[C@@H](CO)[C@@H](O)c2ccc([N+](=O)[O-])cc2)c1Cl [4-275 (S,S), 5-Chloro-2-cyclopropyl-4-[(1S, 2S)-2-hydroxy-1-hydroxymethyl-2-(4-nitrophenyl)-ethylamino]-6-methoxycarbonyl-pyrimidine] | 100 | 30 | 60 | 100 | 30 | 100 | 70 | 40 | 80 | 100 | 60 | 100 | –
